The values below come from ChEMBL document CHEMBL3124804, “Discovery of a cyclopentylamine as an orally active dual NK1 receptor antagonist-serotonin reuptake transporter inhibitor” (Bioorg Med Chem Lett, 2014).

In data set [1] the target is Sodium-dependent serotonin transporter (Homo sapiens, UniProt P31645). The experiment in a line: Inhibition of human SERT.
The next data set concerns the target Substance-P receptor (Homo sapiens, UniProt P25103). The experiment in a line: Antagonist activity at human NK1 receptor.
Data set [2] is described as follows: Drug uptake in gerbil brain at 30 mg/kg, po. The format is ADME, organism-based. Further details: dose 30 mg/kg, route oral. The settings on record: gerbillinae, in vivo, read-out: Drug uptake.
Data set [3] can be described thus: Plasma concentration in gerbil at 30 mg/kg, po. Type of data set: ADME, organism-based. Further details: dose 30 mg/kg, route oral. Particulars: gerbillinae, in vivo.
For data set [4], the system named is Gerbillinae. The data set can be described thus: Neurotoxicity in gerbil assessed as increase in spontaneous locomotor activity at 30 mg/kg, po relative to vehicle-treated control. Further details: dose 30 mg/kg, route oral. Type of data set: toxicity, organism-based. Particulars: in vivo.
Data set [5] deals with Gerbillinae. The experiment in a line: Antidepressant activity in gerbil assessed as reduction of immobility time at 30 mg/kg, po administered 30 mins prior to testing measured over 6 mins by forced swimming test relative to vehicle-treated control. Type of data set: functional, organism-based. Further details: dose 30 mg/kg.
For data set [6], the system named is Gerbillinae. The experiment in a line: Antidepressant activity in gerbil assessed as reduction of immobility time at 3 to 10 mg/kg, po administered 30 mins prior to testing measured over 6 mins by forced swimming test relative to vehicle-treated control. Type of data set: functional, organism-based.

SMILES strings stand for the structures. The source made the active and inactive calls. The calls are words filed in the database; no cut-off is given here.

Sodium-dependent serotonin transporter, sequence (P31645 whole entry): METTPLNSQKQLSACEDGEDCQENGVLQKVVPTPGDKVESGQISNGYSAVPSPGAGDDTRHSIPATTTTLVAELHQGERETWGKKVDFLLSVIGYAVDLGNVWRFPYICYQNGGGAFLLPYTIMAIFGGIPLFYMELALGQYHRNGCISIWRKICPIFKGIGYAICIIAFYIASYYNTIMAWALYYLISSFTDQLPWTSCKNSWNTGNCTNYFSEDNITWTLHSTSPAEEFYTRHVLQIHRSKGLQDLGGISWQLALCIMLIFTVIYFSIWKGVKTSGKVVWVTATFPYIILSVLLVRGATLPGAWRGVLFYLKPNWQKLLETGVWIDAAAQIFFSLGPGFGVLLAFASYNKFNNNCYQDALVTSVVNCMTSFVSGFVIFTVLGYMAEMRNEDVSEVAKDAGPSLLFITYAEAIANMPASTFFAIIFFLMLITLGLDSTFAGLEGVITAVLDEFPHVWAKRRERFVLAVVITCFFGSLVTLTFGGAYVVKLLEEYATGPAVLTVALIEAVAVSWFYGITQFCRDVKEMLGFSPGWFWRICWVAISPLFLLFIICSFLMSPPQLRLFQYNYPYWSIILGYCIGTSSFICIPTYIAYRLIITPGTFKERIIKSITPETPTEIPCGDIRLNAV
Substance-P receptor, sequence (P25103 whole entry): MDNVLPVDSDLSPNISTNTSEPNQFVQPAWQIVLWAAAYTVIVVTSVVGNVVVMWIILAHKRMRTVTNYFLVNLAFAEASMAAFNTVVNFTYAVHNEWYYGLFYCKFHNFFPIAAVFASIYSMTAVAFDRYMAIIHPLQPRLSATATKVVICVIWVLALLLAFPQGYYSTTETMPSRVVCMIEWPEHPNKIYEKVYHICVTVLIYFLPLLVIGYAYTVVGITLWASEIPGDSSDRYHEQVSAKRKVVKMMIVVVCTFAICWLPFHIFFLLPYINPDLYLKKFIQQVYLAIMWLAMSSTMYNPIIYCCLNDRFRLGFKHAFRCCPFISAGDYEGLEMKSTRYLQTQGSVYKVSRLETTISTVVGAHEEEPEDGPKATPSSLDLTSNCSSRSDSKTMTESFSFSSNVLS

With `FC(F)(F)c1cc(COCC2(c3ccccc3)CCC(N3CCCCC3)CC2)cc(C(F)(F)F)c1` (mixture of isomers), the IC50 (in general, the midpoint of a concentration-inhibition curve) in data set [1] amounted to 970 nM; against Substance-P receptor, 93 nM.

Regarding `CN(C)C1CCC(COCc2cc(C(F)(F)F)cc(C(F)(F)F)c2)(c2ccccc2)C1` (mixture of isomers), the IC50 in data set [1] was determined as 57 nM; on Substance-P receptor, 8 nM.

Consider `FC(F)(F)c1cc(COCC2(c3ccccc3)CCC(NC3CC3)CC2)cc(C(F)(F)F)c1` (mixture of isomers), for which the IC50 in data set [1] amounted to 680 nM; on Substance-P receptor, 74 nM.

Take `FC(F)(F)c1cc(COCC2(c3ccccc3)CCC(N3CCOCC3)CC2)cc(C(F)(F)F)c1` (mixture of isomers): the IC50 in data set [1] is more than 1000 nM; against Substance-P receptor, 350 nM.

As to `COCCN(C)C1CCC(COCc2cc(C(F)(F)F)cc(C(F)(F)F)c2)(c2ccccc2)C1` (mixture of isomers), the figures for the IC50 (in data set [1]; against Substance-P receptor) were more than 1000 nM and 20 nM, respectively.

For the molecule `N[C@H]1CC[C@](COCc2cc(C(F)(F)F)cc(C(F)(F)F)c2)(c2ccccc2)C1`, the IC50 in data set [1] was determined as 350 nM; at Substance-P receptor, 19 nM.

Regarding `FC(F)(F)c1cc(COCC2(c3ccccc3)CCC(N3CCOCC3)C2)cc(C(F)(F)F)c1` (mixture of isomers), the values for the IC50 (in data set [1]; against Substance-P receptor) were more than 1000 nM and 45 nM, respectively.

For `FC(F)(F)c1cc(COCC2(c3ccccc3)CCC(N3CCCC3)C2)cc(C(F)(F)F)c1` (mixture of isomers), the IC50 in data set [1] is more than 1000 nM; against Substance-P receptor, 14 nM.

Take `FC(F)(F)c1cc(COCC2(c3ccccc3)CCC(N3CCCCC3)C2)cc(C(F)(F)F)c1` (mixture of isomers): the half-inhibitory concentration (IC50) in data set [1] is more than 1000 nM; against Substance-P receptor it was 4.7 nM.

As to `N[C@@H]1CC[C@](COCc2cc(C(F)(F)F)cc(C(F)(F)F)c2)(c2ccccc2)C1`, the values for the concentration for half-maximal inhibition (IC50) (in data set [1]; on Substance-P receptor) were 210 nM and 31 nM, respectively.

On to `CN1CCN(C2CCC(COCc3cc(C(F)(F)F)cc(C(F)(F)F)c3)(c3ccccc3)CC2)CC1` (mixture of isomers), for which the values for the half-inhibitory concentration (IC50) (in data set [1]; against Substance-P receptor) were 520 nM and 120 nM, respectively.

On to `CCN(CC)C1CCC(COCc2cc(C(F)(F)F)cc(C(F)(F)F)c2)(c2ccccc2)CC1` (mixture of isomers), for which the IC50 in data set [1] was found to be 280 nM; against Substance-P receptor, 38 nM.

Regarding `FC(F)(F)c1cc(COCC2(c3ccccc3)CCC(N3CCCC3)CC2)cc(C(F)(F)F)c1` (mixture of isomers), the figures for the half-maximal inhibitory concentration (IC50) (in data set [1]; at Substance-P receptor) were more than 1000 nM and 120 nM, respectively.

Turning to `CC(C)N(C(C)C)C1CCC(COCc2cc(C(F)(F)F)cc(C(F)(F)F)c2)(c2ccccc2)C1` (mixture of isomers), the IC50 in data set [1] is more than 1000 nM; on Substance-P receptor it was 470 nM.

For `CCNC1CCC(COCc2cc(C(F)(F)F)cc(C(F)(F)F)c2)(c2ccccc2)CC1` (mixture of isomers), the values for the IC50 (in data set [1]; on Substance-P receptor) were 150 nM and 14 nM, respectively.

In the case of `CN(C)C1CCC(COCc2cc(C(F)(F)F)cc(C(F)(F)F)c2)(c2ccccc2)CC1` (mixture of isomers), the half-maximal inhibitory concentration (IC50) was determined as 250 nM in data set [1] and 48 nM at Substance-P receptor.

With `N[C@H]1CC[C@@](COCc2cc(C(F)(F)F)cc(C(F)(F)F)c2)(c2ccccc2)C1`, the concentration in data set [2] was determined as 7.4 µM; in data set [3] it was 0.3 µM. Also, the Activity result in the data set with Gerbillinae [4] is on record as “Non-toxic”. Moreover, the outcome with Gerbillinae [5] was Active. Also, the result in the data set with Gerbillinae [6] was inactive. Besides, the IC50 in data set [1] was found to be 4.7 nM; at Substance-P receptor it was 7.5 nM.

On to `N[C@@H]1CC[C@@](COCc2cc(C(F)(F)F)cc(C(F)(F)F)c2)(c2ccccc2)C1`, for which the IC50 in data set [1] came out at 130 nM; against Substance-P receptor, 11 nM.

With `FC(F)(F)c1cc(COCC2(c3ccccc3)CCC(NC3CC3)C2)cc(C(F)(F)F)c1` (mixture of isomers), the values for the IC50 (in data set [1]; against Substance-P receptor) were 530 nM and 16 nM, respectively.

Consider `CNC1CCC(COCc2cc(C(F)(F)F)cc(C(F)(F)F)c2)(c2ccccc2)CC1` (mixture of isomers), for which the concentration for half-maximal inhibition (IC50) in data set [1] worked out at 190 nM; at Substance-P receptor, 16 nM.
